Reference: patent publication US9518038B2, “Condensation product of theanine derivative and carboxylic acid coumarin derivative, its intermediate, preparation method and use thereof” (SHANDONG YINGDONG YINGHAO BIOTECHNOLOGY, INC., priority 2012, dated 2016)

Experiments:
[1] = tested on: human liver cancer cells SMMC7721 xenograft; assay: In-vivo growth of SMMC7721 xenografts in nude mice; design: species or system BALB/c nude mice; conditions: Mus musculus, SMMC-7721, ip, S-7721 xenograft, vs DMSO solvent control, read-out: Curative effect (inhibition rate %) of tumor weight; for inhibition in vivo at 60 mg/kg: 60 mg/kg intraperitoneal once a day; for inhibition in vivo at 90 mg/kg: 90 mg/kg intraperitoneal once a day
Procedure: RPMI1640 and DMEM culture solutions: Hyclone Company; inactivated fetal bovine serum: Hyclone Company, preserved at −20° C.; trypsin: Amersco Company; and 0.4% trypan blue: Sigma Company;
(3) Observation of growth of tumors in nude mice: the activities (including food intake, traits of urine and stool, mental state and the like) of the nude mice and the tumor growth time and growth situation of the transplanted tumors were observed every day, the body weight and the size of the tumors were measured once every 2-3 days. The long diameter a and the short diameter b (mm) of each tumor were measured by a vernier caliper to calculate the volume, wherein the volume V=π1/2·ab^2 (mm^3);
(4) sacrifice of animals: the mice were anesthetized and photoed after treatment experiments; the nude mice were sacrificed by breaking neck, the tumor tissues were stripped under sterile conditions and the weight of the tumors was weighed; and the effects of the drugs on pathology and toxicity of the various organs and tissues were detected.

[2] = tested on: human oral epidermoid cancer cells KBV200; assay: MTT growth inhibition, KBV200 cells; assay type: cell-based; conditions: 72 h after treatment, read-out: Drug concentration (IC50) at which 50% cancer cells survived
Source text: (§1) Cell lines and cell culture: human lung cancer cells A549 and H460, human breast cancer cells MCF-7 and MDA-MB-231, human gastric cancer cells BGC-823, human prostate cancer cells PC-3, human chronic leukemia cells K562, human lymphoma cells U937, human liver cancer cells SMMC7721 and HepG2, human colon cancer cells HT29, human pancreatic cancer cells PANC-1 and BxPC3, human cervical cancer Hela cell lines, human brain tumor cells Daoy, human neuroma cells D54 and human oral epidermoid cancer cells KBV200 line with strong drug resistance, mouse melanoma cells B16, and highly metastatic Lewis lung cancer cell lines were purchased from American Type Culture Collection of the U.S. These cells were cultured with DMEM and RPMI-1640 culture solutions separately.
(§2) The procedure was as follows:
(§3) (1) 0.25% trypsin was used to digest cancer cells in a logarithmic growth phase to prepare a single-cell suspension, the concentration of cells was adjusted to 5×10^4/mL, and the adjusted suspension was inoculated into a 96-well culture plate with 100 μl per well;
(§4) (2) The culture plate was transferred into a 37° C. incubator with a saturated humidity and 5% of CO2 and cultured for 24 h; the compounds and the intermediates thereof obtained in embodiments 1-7 and the compound as represented by formula (IIIa) or the positive control anti-cancer drug with the concentration of 1-1000 μM/L were added to enable the final concentration to be 0.1-1500 μM/L. Control wells (only added with 200 μl of cell suspension) and drug-free blank control wells (containing the solvent of 0.01% DMSO) were set, each group included 8 wells, and the plate was placed into the 37° C. incubator with saturated humidity and 5% of CO2 for culturing;
(§5) (3) The 96-well plate was taken out at 48 h and 72 h after dosing, the original culture medium was carefully removed by suction, 100 μl of serum-free DMEM culture medium and 10 μl of MTT (5 mg/mL) solution were added in each well. The plate was continuously cultured for another 4 h and then the culture was terminated;
(§6) (4) The supernatant in the wells was carefully removed by suction, each well was added with 150 μl of DMSO and shaked at room temperature for 10-15 min to fully dissolve crystals.
(§7) (5) Colorimetric analysis: the wavelength was selected as 570 nm, the light absorbance (A value) of each well was determined on the microplate reader and the results were recorded; the experiment was repeated for three times;
(§8) (6) the experimental results were calculated according to the following formula: relative survival rate=(A value of each experimental group/A value of cell control group)×100%
(§9) Calculation of median-effect concentration (IC50, namely the drug concentration at which the inhibition rate is 50%, also known as half inhibitory concentration):
(§10) IC50 of the detected component was calculated by using a regression equation.

[3] = tested on: human chronic leukemia cells K562; assay: MTT growth inhibition, K562 cells; assay type: cell-based; conditions: 72 h after treatment, read-out: Drug concentration (IC50) at which 50% cancer cells survived
Source text: as §1, §2, §3, §4, §5, §6, §7, §8, §9, §10

[4] = tested on: human colon cancer cells HT29; assay: MTT growth inhibition, HT29 cells; assay type: cell-based; conditions: HT-29, 72 h after treatment, read-out: Drug concentration (IC50) at which 50% cancer cells survived
Source text: as §1, §2, §3, §4, §5, §6, §7, §8, §9, §10

HDAC3 = assay: Western Blotting, HDAC3 level; assay type: cell-based; conditions: human liver cancer cells, Lewis lung cancer cells and other cancer cell lines and tumor tissues, read-out: Effective concentration (IC50) for inhibition of HDAC3
Source text: (§11) Antibodies: primary antibodies of VEGFR, EGFR, c-Met, K-Ras, H-Ras, Akt, NF-κB, Cyclin D1, ER-alpha, Dvl-1, Dvl-2, Dvl-3, MMP-9, MMP2, β-catenin, Bcl-2, Bax, p53, p21, E-cadherin and Caspase3 protein, purchased from American Cell Signaling Technology Company and Santa Cruz Technology Company; and H3 acetylation, H4 acetylation and HDAC (HDAC3, HDAC4 and the like) Antibody Sample Kits, purchased from Cell Signaling Technology Company of the U.S.
(§12) (3) polyacrylamide gel electrophoresis (SDS-PAGE): an equal amount of protein lysate sample was used to separate protein, film transfer, and blocking, treated with appropriate primary antibodies and secondary antibodies in sequence, and the film was washed, then the color was developed with ECL kit, and a blot protein band was detected by exposure of an X-ray film; and a Gel-Pro Analyzer was used for quantitative analysis of gray degree, optical density value of the control group and the drug treatment group in various concentration were respectively compared with that of internal reference, the obtained ratios were respectively compared with the control group, and the protein expression level was semi-quantified.

EZH2 = molecular target: T1, EZH2 (Homo sapiens, UniProt Q15910); assay: EZH2 enzyme activity in protein extracts of human tumor xenografts of treated mice (EZH2 Assay Kit); assay type: in vivo; conditions: tumors excised 6 h after medication, SAHA 25 mg/kg
T1 construct: the EZH2 enzyme was replaced with tumor protein extracts in each group; from tissue; host or cells: human tumour xenografts excised from treated nude mice

p21 = assay: Western Blotting, increase of p21 level; assay type: cell-based; conditions: liver cancer cells, Lewis lung cancer cells and other cancer cell lines and tumor tissue protein lysates, 48 h treatment, read-out: Effective concentration to increase p21 by 50%
Source text: as §11, §12

c-Met = assay: Western Blotting, c-Met level; assay type: cell-based; conditions: human liver cancer cells, Lewis lung cancer cells and other cancer cell lines and tumor tissues, read-out: Effective concentration (IC50) for inhibition of c-Met
Source text: as §11, §12

Akt = assay: Western Blotting, Akt level; assay type: cell-based; conditions: human liver cancer cells, Lewis lung cancer cells and other cancer cell lines and tumor tissues, read-out: Effective concentration (IC50) for inhibition of Akt
Source text: as §11, §12

E-cadherin = assay: Western Blotting, increase of E-cadherin level; assay type: cell-based; conditions: liver cancer cells, Lewis lung cancer cells and other cancer cell lines and tumor tissue protein lysates, 48 h treatment, read-out: Effective concentration to increase E-cadherin by 50%
Source text: as §11, §12

Bcl-2/Bax = assay: Western Blotting, Bcl-2/Bax level; assay type: cell-based; conditions: human liver cancer cells, Lewis lung cancer cells and other cancer cell lines and tumor tissues, read-out: Effective concentration (IC50) for inhibition of Bcl-2/Bax
Source text: as §11, §12

T1 sequence (Q15910 whole entry): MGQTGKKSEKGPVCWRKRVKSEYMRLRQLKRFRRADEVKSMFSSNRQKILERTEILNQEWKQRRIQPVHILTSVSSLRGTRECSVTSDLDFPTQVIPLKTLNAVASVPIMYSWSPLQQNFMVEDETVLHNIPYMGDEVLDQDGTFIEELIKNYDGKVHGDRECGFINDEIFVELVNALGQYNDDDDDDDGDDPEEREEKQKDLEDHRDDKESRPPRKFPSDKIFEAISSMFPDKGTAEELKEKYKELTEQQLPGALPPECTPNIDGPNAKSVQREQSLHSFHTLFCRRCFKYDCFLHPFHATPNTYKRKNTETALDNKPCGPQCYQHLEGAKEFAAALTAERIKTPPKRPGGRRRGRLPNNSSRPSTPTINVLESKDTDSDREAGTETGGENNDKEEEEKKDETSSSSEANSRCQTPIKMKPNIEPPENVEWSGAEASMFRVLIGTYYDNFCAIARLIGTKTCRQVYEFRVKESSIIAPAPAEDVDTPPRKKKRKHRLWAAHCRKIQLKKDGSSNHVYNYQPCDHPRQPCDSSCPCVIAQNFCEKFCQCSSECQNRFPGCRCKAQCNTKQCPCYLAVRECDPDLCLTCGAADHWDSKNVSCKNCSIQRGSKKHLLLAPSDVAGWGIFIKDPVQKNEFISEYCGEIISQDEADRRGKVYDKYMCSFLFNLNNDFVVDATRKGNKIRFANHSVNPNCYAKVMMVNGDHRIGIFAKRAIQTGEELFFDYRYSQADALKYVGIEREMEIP
T1 sequence (O75530 whole entry partner): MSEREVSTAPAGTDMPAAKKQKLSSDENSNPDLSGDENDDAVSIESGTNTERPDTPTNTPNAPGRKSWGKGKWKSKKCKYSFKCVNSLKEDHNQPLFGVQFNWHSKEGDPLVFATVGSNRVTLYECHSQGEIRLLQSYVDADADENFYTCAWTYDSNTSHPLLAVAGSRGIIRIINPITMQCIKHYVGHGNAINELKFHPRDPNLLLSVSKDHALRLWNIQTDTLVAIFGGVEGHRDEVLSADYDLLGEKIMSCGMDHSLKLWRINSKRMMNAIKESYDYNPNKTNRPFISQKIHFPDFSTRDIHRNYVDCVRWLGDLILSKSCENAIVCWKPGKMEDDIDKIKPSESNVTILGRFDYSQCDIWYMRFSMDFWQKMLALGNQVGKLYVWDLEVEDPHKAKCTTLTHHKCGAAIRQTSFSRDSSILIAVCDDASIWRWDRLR
T1 sequence (Q15022 whole entry partner): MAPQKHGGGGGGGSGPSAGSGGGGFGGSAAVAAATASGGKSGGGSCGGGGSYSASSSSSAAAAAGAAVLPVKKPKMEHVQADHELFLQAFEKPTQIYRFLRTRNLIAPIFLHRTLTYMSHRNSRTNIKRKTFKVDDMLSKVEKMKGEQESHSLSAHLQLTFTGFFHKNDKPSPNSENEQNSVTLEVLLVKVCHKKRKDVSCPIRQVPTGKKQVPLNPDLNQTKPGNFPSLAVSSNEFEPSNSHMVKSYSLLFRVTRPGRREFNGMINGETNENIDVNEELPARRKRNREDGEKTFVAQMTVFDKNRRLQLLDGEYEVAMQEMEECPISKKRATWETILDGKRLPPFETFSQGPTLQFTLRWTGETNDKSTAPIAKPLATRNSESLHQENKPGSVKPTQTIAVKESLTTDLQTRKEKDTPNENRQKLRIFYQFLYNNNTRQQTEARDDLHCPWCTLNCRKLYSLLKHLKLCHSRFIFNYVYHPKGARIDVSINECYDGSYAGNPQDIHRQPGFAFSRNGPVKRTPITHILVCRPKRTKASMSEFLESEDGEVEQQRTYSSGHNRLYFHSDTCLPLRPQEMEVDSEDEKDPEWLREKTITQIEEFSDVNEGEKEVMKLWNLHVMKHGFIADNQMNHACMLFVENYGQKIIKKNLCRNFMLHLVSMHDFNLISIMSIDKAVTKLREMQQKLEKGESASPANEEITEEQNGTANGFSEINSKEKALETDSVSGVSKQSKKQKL

Row | SMILES | inhibition in vivo at 60 mg/kg [1] | inhibition in vivo at 90 mg/kg [1] | IC50 [2] | IC50 [3] | IC50 [4] | IC50 (HDAC3) | decrease of EZH2 enzyme activity/inhibition rate (EZH2; A549 tumor grown in vivo) | decrease of EZH2 enzyme activity/inhibition rate (EZH2; SMMC7721 tumor grown in vivo) | EC50 (p21) | IC50 (c-Met) | IC50 (Akt) | EC50 (E-cadherin) | IC50 (Bcl-2/Bax) | decrease of EZH2 enzyme activity/inhibition rate (EZH2; MCF7 tumor grown in vivo) | decrease of EZH2 enzyme activity/inhibition rate (EZH2; MDA-MB231 tumor grown in vivo)
1 | CCNC(=O)CC[C@H](N)C(=O)OC [Compound IIa, theanine methyl ester] | 36.6% | 38.2% | 380 µM | 350 µM | 250 µM |  |  |  |  |  |  |  |  |  | 
2 | CCNC(=O)CCC(NC(=O)c1cc2ccccc2oc1=O)C(=O)OCC (stereo not shown) [Compound Ib, ethyl 5-ethylamino-5-oxo-2-(2-oxo-2H-benzopyran-3-carboxamido)pentanoate] | 60.8% | 66.6% | 136 µM | 150 µM | 105 µM | < 70 µM | 54%*(A549)- | 57%*(SMMC-7721) | < 120 µM | < 155 µM | < 120 µM | < 70 µM | < 120 µM |  | 
3 | CCNC(=O)CCC(NC(=O)c1cc2cc(F)ccc2oc1=O)C(=O)OCC (stereo in doubt) [Compound Ie, (R)-2-(6-F-2-oxo-2H-benzopyran-3-carboxamido)-5-ethylamino-5-oxo-pentanoic acid ethyl ester] | 64.8% | 69.9% | 210 µM | 130 µM | 240 µM | < 55 µM | 58%*(A549)- | 56%*(SMMC7721); | < 100 µM | < 145 µM | < 160 µM | < 65 µM | < 180 µM | 62%*(MCF7) | 59%*(MDA-MB231)
4 | CCNC(=O)CC[C@@H](NC(=O)c1cc2cc(Br)cc(Br)c2oc1=O)C(=O)OCC [Compound Ih, (R)-2-(6,8-dibromo-2-oxo-2H-benzopyran-3-carboxamido)-5-ethylamino-5-oxo-pentanoic ethyl ester] | 57.7% | 78.7% | 72 µM | 79 µM | 108 µM | < 65 µM | 55%*(A549)- | 56%*(SMMC7721); | < 100 µM | < 500 µM | < 70 µM | < 70 µM | < 70 µM | 61%*(MCF7) | 59%*(MDA-MB231)
5 | CCNC(=O)CC[C@@H](NC(=O)c1cc2cc(Cl)cc(Cl)c2oc1=O)C(=O)OCC [Compound Ig, (R)-2-(6,8-dichloro-2-oxo-2H-benzopyran-3-carboxamido)-5-ethylamino-5-oxo-pentanoic ethyl ester] | 53.6% | 70.6% | 84 µM | 57 µM | 99 µM | < 65 µM | 57%*(A549)- | 58%*(SMMC7721); | < 70 µM | < 150 µM | < 70 µM | < 70 µM | < 70 µM | 65%*(MCF7) | 61%*(MDA-MB231)
6 | CCNC(=O)CC[C@@H](NC(=O)c1cc2cc(Cl)ccc2oc1=O)C(=O)OCC [Compound Ic, (R)-2-(6-CI-2-oxo-2H-benzopyran-3-carboxamido)-5-ethylamino-5-oxo-pentanoic acid ethyl ester] | 63.2% | 69.2% | 97 µM | 105 µM | 105 µM | < 65 µM | 61%*(A549)- | 59%*(SMMC7721); | < 100 µM |  | < 100 µM | < 65 µM | < 100 µM | 56%*(MCF7) | 58%*(MDA-MB231)
7 | CCNC(=O)CC[C@H](N)C(=O)OCC [Compound IIb, theanine ethyl ester] | 44.6% | 46.8% | 300 µM | 600 µM | 600 µM |  |  |  |  |  |  |  |  |  | 
